According to patent publication US8101663B2, “Polymorphs of suberoylanilide hydroxamic acid” (Merck HDAC Research, LLC, priority 2002, dated 2012):
“And” between values parts separate entries of the source, which are not always exact repeats. Equal values may be shown once.

What was measured:
[1] = tested on: murine erythroleukemia cells (MELC); settings: without continuing drug exposure; cited from earlier work
[2] = Serum plasma levels of SAHA after IV and oral dosing (HPLC assay, LCMS using a deuterated standard); assay type: in vivo, humans; settings: human
Experimental: Objectives: To define a safe daily oral regimen of SAHA that can be used in Phase II studies. In addition, the pharmacokinetic profile of the oral formulation of SAHA was be evaluated. The oral bioavailability of SAHA in humans in the fasting vs. non-fasting state and anti-tumor effects of treatment were also monitored. Additionally, the biological effects of SAHA on normal tissues and tumor cells were assessed and responses with respect to levels of histone acetylation were documented.
Patients: Patients with histologically documented advanced stage, primary or metastatic adult solid tumors that are refractory to standard therapy or for which no curative standard therapy exists. Patients must have a Karnofsky Performance Status of ≧70%, and adequate hematologic, hepatic and renal function. Patients must be at least four weeks from any prior chemotherapy, radiation therapy or other investigational anticancer drugs.
Dosing Schedule: On the first day, patients were first treated with 200 mg of intravenously-administered SAHA. Starting on the second day, patients were treated with daily doses of oral SAHA according to Table 1. Each cohort received a different dose of SAHA. “QD” indicates dosing once a day; “Q12 hours” indicates dosing twice a day. For example, patients in Cohort IV received […] of SAHA per day. Doses were administered to patients daily and continuously. Blood samples were taken on day one and on day 21 of oral treatment. Patients were taken off oral SAHA treatment due to disease progression, tumor regression, unacceptable side effects, or treatment with other therapies.
Cmax is the maximum concentration of SAHA observed after administration. IV SAHA was administered at 200 mg infused over two hours. The oral SAHA was administered in a single capsule at 200 mg. Tables 2 and 3 summarize the results of an HPLC assay (LCMS using a deuterated standard) that quantitates the amount of SAHA in the blood plasma of the patients versus time, using acetylated histone-4 (α-AcH4) as a marker.

[3] = tested on: carcinogen-induced (N-methylnitrosourea) mammary tumors; settings: rats, SAHA in the diet over 130 days; cited from earlier work
[4] = tested on: acetylated histones in peripheral mononuclear cells; test: Histone acetylation in peripheral blood mononuclear cells after SAHA capsules (anti-acetylated histone H3 antibody); assay type: in vivo, patients; settings: 400 mg per day dose level, preliminary analysis
Experimental: Peripheral blood mononuclear cells were collected pre-therapy, immediately post-infusion and between 2-10 hours after oral ingestion of the SAHA capsules to assess the effect of SAHA on the extent of histone acetylation in a normal host cell. Histones were isolated and probed with anti-acetylated histone (H3) antibody followed by HRP-secondary antibody.

[5] = assay type: in vivo, patients; settings: once a day, continuous
Text: (§1) In another experiment, twenty-five patients with solid tumors have been enrolled onto arm A, thirteen patients with Hodgkin's or non-Hodgkin's lymphomas have been enrolled onto arm B, and one patient with acute leukemia and one patient with myelodysplastic syndrome have been enrolled onto arm C, as shown in Table 4.
Among eleven patients treated in Cohort II, one patient experienced the DLT of grade 3 diarrhea and grade 3 dehydration during the first treatment cycle. Nine patients were entered into Cohort III. Two patients were inevaluable for the 28-day toxicity assessment because of early study termination due to rapid progression of disease. Of the seven remaining patients, five experienced DLT during the first treatment cycle: diarrhea/dehydration (n=1), fatigue/dehydration (n=1), anorexia (n=1), dehydration (n=1) and anorexia/dehydration (n=1). These five patients recovered in approximately one week after the study drug was held. They were subsequently dose reduced to 400 mg QD which appeared to be well tolerated. The median days on 400 mg BID for all patients in Cohort III was 21 days. […] Following protocol amendment, accrual was continued in cohort IV at a dose of 600 mg once a day. Of the seven patients enrolled onto cohort IV, two were inevaluable for the 28-day toxicity assessment because of early study termination due to rapid progression of disease. […]

[6] = tested on: solid tumors, Hodgkin's or non-Hodgkin's lymphomas, leukemia; test: Anti-tumor response in patients on oral SAHA; assay type: in vivo
Text: as §1
Thirteen patients continued treatment for 3-12 months with responding or stable disease: thyroid (n=3), sweat gland (n=1), renal (n=2), larynx (n=1), prostate (n=1), Hodgkin's lymphoma (n=2), non-Hodgkin's lymphoma (n=2), and leukemia (n=1).
Six patients had tumor shrinkage on CT scans. Three of these six patients meet the criteria of partial response (one patient with metastatic laryngeal cancer and two patients with non-Hodgkin's lymphomas). These partial responses occurred at the dose levels of 400 mg BID (n=2) and 600 mg QD (n=1).

[7] = Interim pharmacokinetic analysis of oral SAHA, dose escalation study; assay type: in vivo, patients
Experimental: as §1
The interim pharmacokinetic analysis was based on 18 patients treated on the dose levels of 200 mg QD, 400 mg QD, and 400 mg BID. […] Overall, the fraction of AUCinf due to extrapolation was 1% or less.

[8] = iv, 200 mg, Patient #1, IV, 200 mg infused over two hours
[9] = iv, 200 mg, Patient #2, IV, 200 mg infused over two hours
[10] = po, 200 mg, Patient #1, oral (fasting), single capsule 200 mg
[11] = po, 200 mg, Patient #1, oral (nonfasting), single capsule 200 mg
[12] = po, 200 mg, Patient #2, oral (fasting), single capsule 200 mg
[13] = po, 200 mg, Patient #2, oral (nonfasting), single capsule 200 mg

Q: For `CC(=O)NCCCCCCNC(C)=O` [HMBA, N,N′-hexamethylene bisacetamide], which “Minimum duration of continuous exposure required to induce differentiation in a substantial portion (>20%) of the population” value [1] is on record?
A: about 36 hours

Q: For `O=C(CCCCCCC(=O)Nc1ccccc1)NO` [SAHA, suberoylanilide hydroxamic acid], which half-life ([2]; Patient #2, oral (fasting), single capsule 200 mg) is on record?
A: 1.37 h

Q: And the AUC [2, 8]?
A: 2550 ng·h/mL

Q: What about the Cmax [2, 8] of the same molecule?
A: 1330 ng/mL

Q: What about the half-life [2, 8] of the same molecule?
A: 0.333 h

Q: What about the AUC [2, 9] of the same molecule?
A: 1800 ng·h/mL

Q: What about the Cmax [2, 9] of the same molecule?
A: 1000 ng/mL

Q: And the half-life [2, 9]?
A: 0.35 h

Q: And the AUC [2, 10]?
A: 417 ng·h/mL

Q: And the Cmax [2, 10]?
A: 225 ng/mL

Q: And the half-life [2, 10]?
A: 1.33 h

Q: And the AUC [2, 11]?
A: 983 ng·h/mL

Q: And the Cmax [2, 11]?
A: 328 ng/mL

Q: What about the half-life [2, 11] of the same molecule?
A: 1.07 h

Q: And the AUC [2, 12]?
A: 1050 ng·h/mL

Q: What about the Cmax [2, 12] of the same molecule?
A: 362 ng/mL

Q: What about the AUC [2, 13] of the same molecule?
A: 998 ng·h/mL

Q: What about the Cmax [2, 13] of the same molecule?
A: 302 ng/mL

Q: And the half-life [2, 13]?
A: 1.55 h

Q: And the “Effect on development and continued growth of mammary tumors” value [3]?
A: effective at inhibiting the development and continued growth

Q: And the “Time after ingestion up to which increased accumulation of acetylated histones could be detected” value [4]?
A: up to 10 hours

Q: What about the “Maximally tolerated dose for once daily oral administration” value [5] of the same molecule?
A: 400 mg

Q: What about the “Patients meeting the criteria of partial response” value ([6]; dose levels 400 mg BID (n=2) and 600 mg QD (n=1), laryngeal cancer, non-Hodgkin's lymphomas) of the same molecule?
A: Three

Q: And the “Patients with tumor shrinkage on CT scans” value ([6]; oral SAHA)?
A: Six

Q: And the “Patients who continued treatment for 3-12 months with responding or stable disease” value ([6]; oral SAHA, 40 patients enrolled)?
A: Thirteen

Q: What about the bioavailability ([7]; human, plasma, calculated from the AUCinf values after the IV infusion and oral routes, read-out: Bioavailable fraction of SAHA) of the same molecule?
A: ~48%

Q: What about the half-life ([7]; human, plasma, oral, across dose groups 200 mg QD, 400 mg QD, 400 mg BID, fasting or with food, 18 patients, read-out: Mean estimates for apparent half-life) of the same molecule?
A: 1.02 to 1.9 h

Q: What about the Cmax ([7]; human, plasma, oral, dose levels 200 mg QD, 400 mg QD, 400 mg BID, 18 patients, read-out: Mean estimates of Cmax) of the same molecule?
A: 233 ng/mL to 570 ng/mL and 880 nM to 2.3 µM

Q: And the “Dose dependence of mean estimates of Cmax and AUCinf” value ([7]; oral, fasting or with food, 200 mg to 400 mg dose range)?
A: increased proportionally with dose
